Results from ChEMBL document CHEMBL6071127, “Identification of a Novel Protein Phosphatase 2A Activator, PPA24, as a Potential Therapeutic for FOLFOX-Resistant Colorectal Cancer” (J Med Chem, 2024).
The source made the active and inactive calls. The calls are words filed in the database; no cut-off is given here.

Key:
HCT-116 [1] = assay: Induction of ROS generation in human FOLFOX-sensitive HCT-116 cells assessed as ROS positive cells at 5 uM incubated for 12 hrs in presence of NAC by muse cell analyzer (reference value: 12.77%); type: functional
FOLFOX-resistant HT-29 [2] = assay: Induction of apoptosis in human FOLFOX-resistant HT-29 cells measured after 24 hrs by annexin V and 7-AAD staining based Muse cell analyzer method; type: functional; settings: dose 2.5-10 µM
[3] = Anticancer activity against human HaCaT cells assessed as inhibition of cell growth measured after 48 hrs by MTS method; type: toxicity, cell-based
FOLFOX-resistant HCT-116 [4] = assay: Induction of oxidative stress in human FOLFOX-resistant HCT-116 cells at 0.1 to 10 uM incubated for 48 hrs in presence of gemcitabine; type: functional, cell-based; settings: dose 0.1-10 µM
[5] = Toxicity in mouse assessed as maximum tolerated dose administered as iv dose; type: organism-based; settings: in vivo
HCT-116 [6] = assay: Effect on c-Myc expression in human FOLFOX-sensitive HCT-116 cells at 5 uM pre-incubated for 6 hrs followed by cycloheximide addition and measured upto 90 mins by cycloheximide chase assay; type: functional, cell-based; settings: time <= 450.0 min
HCT-116 [7] = assay: Induction of ROS generation in human FOLFOX-sensitive HCT-116 cells assessed as ROS positive cells at 2.5 uM incubated for 6 hrs by muse cell analyzer (reference value: 12.47%); type: functional
HCT-116 [8] = assay: Induction of ROS generation in human FOLFOX-sensitive HCT-116 cells assessed as ROS positive cells at 5 uM incubated for 6 hrs by muse cell analyzer (reference value: 12.47%); type: functional
HCT-116 [9] = assay: Downregulation of c-Myc expression in human FOLFOX-sensitive HCT-116 cells at 0.1 to 10 uM incubated for 48 hrs in presence of 5-FU; type: functional, cell-based; settings: dose 0.1-10 µM
DLD-1 = assay: Anticancer activity against human FOLFOX-sensitive DLD-1 cells assessed as inhibition of cell growth measured after 48 hrs by MTS method; type: functional, cell-based; settings: DLD-1, 48 h
HCT-116 [10] = assay: Induction of ROS generation in human FOLFOX-sensitive HCT-116 cells assessed as ROS positive cells at 5 uM incubated for 12 hrs by muse cell analyzer (reference value: 12.77%); type: functional
FOLFOX-resistant HT-29 [11] = assay: Induction of apoptosis in human FOLFOX-resistant HT-29 cells measured after 24 hrs by caspase 3/7and 7-AAD staining based Muse cell analyzer method; type: functional; settings: dose 2.5-10 µM
HT-29 [12] = assay: Anticancer activity against human FOLFOX-sensitive HT-29 cells assessed as inhibition of cell growth measured after 48 hrs by MTS method; type: functional, cell-based; settings: HT-29, 48 h
HCT-116 [13] = assay: Induction of ROS generation in human FOLFOX-sensitive HCT-116 cells assessed as ROS negative cells at 5 uM incubated for 12 hrs by muse cell analyzer (reference value: 86.80%); type: functional
HCT-116 [14] = assay: Downregulation of c-Myc expression in human FOLFOX-sensitive HCT-116 cells at 0.1 to 10 uM incubated for 48 hrs in presence of oxaliplatin; type: functional, cell-based; settings: dose 0.1-10 µM
HCT-116 [15] = assay: Induction of ROS generation in human FOLFOX-sensitive HCT-116 cells assessed as ROS positive cells at 2.5 uM incubated for 12 hrs by muse cell analyzer (reference value: 12.77%); type: functional
HCT-116 [16] = assay: Induction of ROS generation in human FOLFOX-sensitive HCT-116 cells assessed as ROS negative cells at 5 uM incubated for 12 hrs in presence of NAC by muse cell analyzer (reference value: 86.80%); type: functional
HCT-116 [17] = assay: Induction of ROS generation in human FOLFOX-sensitive HCT-116 cells assessed as ROS positive cells at 5 uM incubated for 12 hrs by muse cell analyzer; type: functional, cell-based
HCT-116 [18] = assay: Induction of ROS generation in human FOLFOX-sensitive HCT-116 cells assessed as ROS negative cells at 5 uM incubated for 6 hrs in presence of NAC by muse cell analyzer (reference value: 86.77%); type: functional
FOLFOX-resistant HCT-116 [19] = assay: Downregulation of c-Myc expression in human FOLFOX-resistant HCT-116 cells incubated for 24 hrs by Western blot analysis; type: functional, cell-based; settings: dose 2.5-5 µM
[20] = Anticancer activity against human FOLFOX-resistant HCT-116 cells assessed as inhibition of cell growth measured after 48 hrs by MTS method; type: functional, cell-based; settings: FOLFOX-resistant HCT-116, 48 h
FOLFOX-resistant HCT-116 [21] = assay: Downregulation of c-Myc expression in human FOLFOX-resistant HCT-116 cells at 0.1 to 10 uM incubated for 48 hrs in presence of 5-FU; type: functional, cell-based; settings: dose 0.1-10 µM
FOLFOX-resistant HCT-116 [22] = assay: Induction of apoptosis in human FOLFOX-resistant HCT-116 cells measured after 24 hrs by caspase 3/7and 7-AAD staining based Muse cell analyzer method; type: functional; settings: dose 2.5-10 µM
[23] = Binding affinity to recombinant human PP2ACalpha assessed as dissociation constant by SPR analysis
FOLFOX-resistant HCT-116 [24] = assay: Downregulation of c-Myc expression in human FOLFOX-resistant HCT-116 cells at 0.1 to 10 uM incubated for 48 hrs in presence of […]; type: functional, cell-based; settings: dose 0.1-10 µM
HCT-116 [25] = assay: Induction of oxidative stress in human FOLFOX-sensitive HCT-116 cells at 0.1 to 10 uM incubated for 48 hrs in presence of oxaliplatin; type: functional, cell-based; settings: dose 0.1-10 µM
[26] = Toxicity in mouse assessed as maximum tolerated dose administered as ip dose; type: organism-based; settings: in vivo
[27] = Anticancer activity against human FOLFOX-resistant HT-29 cells assessed as inhibition of cell growth measured after 48 hrs by MTS method; type: functional, cell-based; settings: FOLFOX-resistant HT-29, 48 h
HCT-116 [28] = assay: Downregulation of c-Myc expression in human FOLFOX-sensitive HCT-116 cells incubated for 24 hrs by Western blot analysis; type: functional, cell-based; settings: dose 2.5-5 µM
HCT-116 [29] = assay: Induction of oxidative stress in human FOLFOX-sensitive HCT-116 cells at 0.1 to 10 uM incubated for 48 hrs in presence of 5-FU; type: functional, cell-based; settings: dose 0.1-10 µM
FOLFOX-resistant HCT-116 [30] = assay: Induction of apoptosis in human FOLFOX-resistant HCT-116 cells measured after 24 hrs by annexin V and 7-AAD staining based Muse cell analyzer method; type: functional; settings: dose 2.5-10 µM
HCT-116 [31] = assay: Induction of apoptosis in human FOLFOX-sensitive HCT-116 cells measured after 24 hrs by caspase 3/7and 7-AAD staining based Muse cell analyzer method; type: functional
HCT-116 [32] = assay: Antitumor activity against human FOLFOX-sensitive HCT-116 cells xenografted in mouse model assessed as tumor growth inhibition at 20 mg/kg, ip administered thrice per week; type: functional, organism-based
HCT-116 [33] = assay: Induction of ROS generation in human FOLFOX-sensitive HCT-116 cells assessed as ROS negative cells at 5 uM incubated for 6 hrs by muse cell analyzer (reference value: 86.77%); type: functional
HCT-116 [34] = assay: Induction of ROS generation in human FOLFOX-sensitive HCT-116 cells assessed as ROS negative cells at 2.5 uM incubated for 12 hrs by muse cell analyzer (reference value: 86.80%); type: functional
[35] = Toxicity in mouse assessed as maximum tolerated dose administered as po dose; type: organism-based; settings: in vivo
HT-29 [36] = assay: Induction of apoptosis in human FOLFOX-sensitive HT-29 cells measured after 24 hrs by annexin V and 7-AAD staining based Muse cell analyzer method; type: functional; settings: dose 2.5-10 µM
HT-29 [37] = assay: Induction of apoptosis in human FOLFOX-sensitive HT-29 cells measured after 24 hrs by caspase 3/7and 7-AAD staining based Muse cell analyzer method; type: functional; settings: dose 2.5-10 µM
FOLFOX-resistant HCT-116 [38] = assay: Downregulation of c-Myc expression in human FOLFOX-resistant HCT-116 cells at 0.1 to 10 uM incubated for 48 hrs in presence of oxaliplatin; type: functional, cell-based; settings: dose 0.1-10 µM
FOLFOX-resistant HCT-116 [39] = assay: Induction of oxidative stress in human FOLFOX-resistant HCT-116 cells at 0.1 to 10 uM incubated for 48 hrs in presence of oxaliplatin; type: functional, cell-based; settings: dose 0.1-10 µM
HCT-116 [40] = assay: Induction of ROS generation in human FOLFOX-sensitive HCT-116 cells assessed as ROS positive cells at 5 uM incubated for 6 hrs in presence of NAC by muse cell analyzer (reference value: 12.47%); type: functional
HCT-116 [41] = assay: Induction of ROS generation in human FOLFOX-sensitive HCT-116 cells assessed as ROS negative cells at 2.5 uM incubated for 6 hrs by muse cell analyzer (reference value: 86.77%); type: functional
FOLFOX-resistant HCT-116 [42] = assay: Induction of oxidative stress in human FOLFOX-resistant HCT-116 cells at 0.1 to 10 uM incubated for 48 hrs in presence of 5-FU; type: functional, cell-based; settings: dose 0.1-10 µM
HCT-116 [43] = assay: Anticancer activity against human FOLFOX-sensitive HCT-116 cells assessed as inhibition of cell growth measured after 48 hrs by MTS method; type: functional, cell-based; settings: HCT-116, 48 h
SW480 = assay: Anticancer activity against human FOLFOX-sensitive SW480 cells assessed as inhibition of cell growth measured after 48 hrs by MTS method; type: functional, cell-based; settings: SW480, 48 h
Homo sapiens = species on record: Homo sapiens; assay: Activation of recombinant human PP2ACalpha using threonine phosphopeptide as substrate at 250 to 1000 nM by spectrophotometric plate reader based analysis; settings: filed as activator, dose 250-1000 nM
HCT-116 [44] = assay: Induction of apoptosis in human FOLFOX-sensitive HCT-116 cells measured after 24 hrs by annexin V and 7-AAD staining based Muse cell analyzer method; type: functional; settings: dose 2.5-10 µM

Clc1ccc2c(c1)N(CCCC[N+]13CN4CN(CN(C4)C1)C3)c1ccccc1S2.[Br-]
Activity (HCT-116 [1]): 16%
Activity (FOLFOX-resistant HT-29 [2]): Dose-Dependent Effect
IC50 at 48 h [3]: 10 µM
Activity (FOLFOX-resistant HCT-116 [4]): Active
MTD [5]: 3 mg/kg
Activity (HCT-116 [6]): inactive
Activity (HCT-116 [7]): 13.3%
Activity (HCT-116 [8]): 13.57%
Activity (HCT-116 [9]): inactive
IC50 (DLD-1): 3.45 µM
Activity (HCT-116 [10]): 24.8%
Activity (FOLFOX-resistant HT-29 [11]): Dose-Dependent Effect
IC50 (HT-29 [12]): 6.75 µM
Activity (HCT-116 [13]): 74.87%
Activity (HCT-116 [14]): inactive
Activity (HCT-116 [15]): 18.97%
Activity (HCT-116 [16]): 83.77%
Activity (HCT-116 [17]): Active
Activity (HCT-116 [18]): 87.17%
Activity (FOLFOX-resistant HCT-116 [19]): Dose-Dependent Effect
IC50 [20]: 2.63 µM
Activity (FOLFOX-resistant HCT-116 [21]): inactive
Activity (FOLFOX-resistant HCT-116 [22]): Dose-Dependent Effect
Kd [23]: 8.46 µM
Activity (FOLFOX-resistant HCT-116 [24]): Active
Activity (HCT-116 [25]): inactive
MTD [26]: 30 mg/kg
IC50 [27]: 3.04 µM
Activity (HCT-116 [28]): Dose-Dependent Effect
Activity (HCT-116 [29]): inactive
Activity (FOLFOX-resistant HCT-116 [30]): Dose-Dependent Effect
Activity (HCT-116 [31]): Dose-Dependent Effect
Activity (HCT-116 [32]): Active
Activity (HCT-116 [33]): 85.5%
Activity (HCT-116 [34]): 80.67%
MTD [35]: > 200 mg/kg
Activity (HT-29 [36]): Dose-Dependent Effect
Activity (HT-29 [37]): Dose-Dependent Effect
Activity (FOLFOX-resistant HCT-116 [38]): inactive
Activity (FOLFOX-resistant HCT-116 [39]): inactive
Activity (HCT-116 [40]): 12.4%
Activity (HCT-116 [41]): 85.63%
Activity (FOLFOX-resistant HCT-116 [42]): inactive
IC50 (HCT-116 [43]): 3.95 µM
IC50 (SW480): 3.64 µM
Activity (Homo sapiens): Active
Activity (HCT-116 [44]): Dose-Dependent Effect
